# Source: ChEMBL document CHEMBL1629570, “Posaconazole mono- or combination therapy for treatment of murine zygomycosis” (Antimicrob Agents Chemother, 2009)
# The source made the active and inactive calls. The calls are words filed in the database; no cut-off is given here.
# Columns and labels:
# Type in all cases: functional, organism-based
# [1] = system: Rhizopus arrhizus; assay: Antifungal activity against Rhizopus oryzae 99-880 infected in neutropenic mouse assessed as reduction of fungal burden in brain at 60 mg/kg/day, po administered 8 hrs post infection for 3 days
# [2] = system: Rhizopus arrhizus; assay: Antifungal activity against Rhizopus oryzae 99-880 infected in diabetic ketoacidotic mouse assessed as mouse survival at 60 mg/kg/day, po administered 24 hrs post infection for 4 days
# [3] = system: Rhizopus arrhizus; assay: Antifungal activity against Rhizopus oryzae 99-880 infected in neutropenic BALB/c mouse assessed as improved time to death at 60 mg/kg/day, po administered 24 hrs post infection for 4 days
# [4] = system: Rhizopus arrhizus; assay: Antifungal activity against Rhizopus oryzae 99-880 infected in diabetic ketoacidotic BALB/c mouse assessed as improved time to death at 30 mg/kg/day, po administered 24 hrs post infection for 4 days
# [5] = system: Rhizopus arrhizus; assay: Antifungal activity against Rhizopus oryzae 99-880 infected in diabetic ketoacidotic mouse assessed as mouse survival at 10 mg/kg/day, po administered 24 hrs post infection for 4 days
# [6] = system: Rhizopus arrhizus; assay: Antifungal activity against Rhizopus oryzae 99-880 infected in diabetic ketoacidotic mouse assessed as reduction of fungal burden in kidneys at 60 mg/kg/day, po administered 8 hrs post infection for 3 days; conditions: Kidney
# [7] = system: Rhizopus arrhizus; assay: Antifungal activity against Rhizopus oryzae 99-880 infected in diabetic ketoacidotic BALB/c mouse assessed as improved time to death at 10 mg/kg/day, po administered 24 hrs post infection for 4 days
# [8] = system: Rhizopus arrhizus; assay: Antifungal activity against Rhizopus oryzae 99-880 infected in diabetic ketoacidotic BALB/c mouse assessed as improved time to death at 60 mg/kg/day, po administered 24 hrs post infection for 4 days
# [9] = system: Rhizopus arrhizus; assay: Antifungal activity against Rhizopus oryzae 99-880 infected in diabetic ketoacidotic mouse assessed as mouse survival at 30 mg/kg/day, po administered 24 hrs post infection for 4 days
# [10] = system: Rhizopus arrhizus; assay: Antifungal activity against Rhizopus oryzae 99-880 infected in neutropenic mouse assessed as reduction of fungal burden in kidneys at 60 mg/kg/day, po administered 8 hrs post infection for 3 days; conditions: Kidney
# [11] = system: Rhizopus arrhizus; assay: Antifungal activity against Rhizopus oryzae 99-880 infected in diabetic ketoacidotic mouse assessed as reduction of fungal burden in brain at 60 mg/kg/day, po administered 8 hrs post infection for 3 days
smiles,measurement,setting,value
CC[C@@H]([C@H](C)O)n1ncn(-c2ccc(N3CCN(c4ccc(OC[C@@H]5CO[C@@](Cn6cncn6)(c6ccc(F)cc6F)C5)cc4)CC3)cc2)c1=O,Activity,[1],inactive
same,Activity,[2],inactive
same,Activity,[3],inactive
same,Activity,[4],inactive
same,Activity,[5],inactive
same,Activity,[6],inactive
same,Activity,[7],inactive
same,Activity,[8],Active
same,Activity,[9],inactive
same,Activity,[10],inactive
same,Activity,[11],inactive
